Patent publication US6410218B1, “Plasma-like solution” (BioTime, Inc., priority 1993, dated 2002)

Tests used:
[1] = Buffering capacity in a cell-free system (addition of 1.25 M HCl); type: physicochemical
Experimental: By contrast, the pH of HLB solution (initial pH 7.7) drops below 7.2 with the addition of about 0.01 ml of a 1.25 M HCl solution.
When the solution of the present invention is used as a blood substitute at hypothermic temperatures, medical grade sterile NaHCO3 is added to the heat sterilized solution (HL solution). The solution containing NaHCO3 is called HLB solution. Under in vivo conditions with oxygenation, HLB solution is shown to maintain pH above 7.3 in temperatures ranging from 1.6-36.1° C. (Tables 2 and 3).

[2] = cited from earlier work

NCC(CO)(CO)CO [25 mM TRIS, Tris[Hydroxymethyl]methyl aminomethane]
initial pH ([1]; cell-free solution before HCl addition): about 7.7 | volume of 1.25 M HCl solution added with pH maintained above 7.2 ([1]; cell-free, initial pH about 7.7): up to 0.12 mls

hydroxyethyl starch
share of dose eliminated in the urine ([2]; 500 ml intravenous dose of 6% solution, after 24 hours): approximately 33% | share of dose remaining circulating ([2]; after 1 week): Approximately 10%
